Source: US7569695B2, “Dyes for the detection or quantification of desirable target molecules” (Enzo Life Sciences, Inc., priority 2005, dated 2009)

Experiments:
[1] = tested on: 78 bp amplicon from the anti-sense C construct; assay: Amplification of nucleic acids on the Light Cycler in the presence of dye (Example 33); assay type: biochemical
Description: A target template was amplified on the Light Cycler (Roche) in the presence of various amounts of Dye 109 from Example 14. As a control, various amounts of SYBR Green (Molecular Probes, Eugene, Oreg.) were also included. The template was a 1:500 dilution of a 78 bp amplicon made in a previous reaction from the anti-sense C construct described in Liu et al. 1997 (J. Virol. 71: 4079-4085). A 2×PCR mix was made up of 20 mM Tris pH 8.3, 50 mM KCl, 4 mM MgCl2, 0.4 mM dCTP, 0.4 mM dGTP, 0.4 mM dATP, 0.8 mM dUTP, […] and […].
The Forward Primer sequence is comprised of 20 nucleotides: 5′ […] 3′ (SEQ ID NO: 1). It is an artificial sequence comprising a fusion of human Ul and HIV sequences. Bases 1-7 (CATGATC) of the first sequence are derived from plasmid pHSD-4 and comprise sequences from the human Ul gene. Bases […] (GATCCGGATGGGAGGTG) of the second sequence are derived from a region of the BAL strain of HIV containing the Tat/Rev splice acceptor site.
The Reverse Primer sequence is comprised of 22 nucleotides: 5′[…] (SEQ ID NO: 2). It is an artificial sequence comprising a fusion of human Ul and HIV sequences. Bases 1-11 (GCACATCCGGA) of the first sequence are derived from plasmid pHSD-4 and comprise sequences from the human Ul gene. Bases […] (GATCCGGATGGGAGGTG) of the second sequence are derived from a region of the BAL strain of HIV containing the Tat/Rev splice acceptor site.
The 78 bp amplicon synthesized with Forward Primer (SEQ ID NO: 1) and Reverse Primer (SEQ ID NO: 2) has the following sequence: 5′ […] 3′ (SEQ ID NO: 3). It is an artificial sequence comprising a fusion of human Ul and HIV sequences. Bases 1-11 (GCACATCCGGA) and 68-78 (TCCGGATGTGC) are derived from plasmid pHSD-4 and comprise sequences from the human Ul gene. Bases […] are derived from a region of the BAL strain of HIV containing the Tat/Rev splice acceptor site.
A master mixture was made up of: • 350 µl of 2×PCR mix described above • 14 µl of 25 mM MgCl2 • 122.5 µl of DEPC treated H2O • 14 ul of 1 u/l ung (Epicentre) • 7 µl of 10 mg/ml BSA (New England Biolabs, Beverly, Mass.) • 7 l Taq polymease (Perkin Elmer)+7 µl of TaqStart (Clontech) • 2.5 µl of target template+2.0 l of various dilutions of dyes were added to 15.5 µl of Master mixture, incubated at 45° C. for 10 minutes and then amplified by: • 1) Melting • 2 minutes @ 95° C. • 2) Cycling • a) Denaturation step: 0 seconds @ 95° C. • b) Annealing step: 5 seconds @ 69° C. for first cycle; subsequent cycles were each reduced by 0.5° C. until 65° C. was reached and all annealing steps in further cycles were carried out at this temperature • c) Extension step: 5 seconds @ 72° C. • 3) After completion of 56 cycles, all samples were maintained at 4° C. until analyzed.
After the amplification reactions were finished, the samples were analyzed by gel electrophoresis. For SYBR Green, the recommended reaction concentration is 1:10,000. As such, the amplification products shown in lanes 5 and 6 using 2 l of […] dilution in a 20 l reaction (final=1:8,000) is approximately representative of the product from the standard procedure. For Dye 109, the reactions are listed in terms of dilutions of a stock of Dye 109 with an OD reading of 200 taken at 495 nm. […] However, when lower dilutions of the dyes were added there was no inhibition of the process.

anti-sense C amplicon = assay: Amplification of various amounts of target with fixed dye levels, 29 cycles (Example 37); assay type: biochemical; settings: 1:1000 dilution of SYBR Green
Description: In the previous experiments, a fixed amount of target was amplified in the presence of varying level of dyes. The eventual use of these dyes is going to be with a fixed amount of dye and varying levels of targets. As such, an experiment was carried out using previously determined optimal levels of dyes and various amounts of input target (again using the anti-sense C as a model). • Dilution 1=1:100,000 • Dilution 2=1:1,000,000 • Dilution 3=1:10,000,000 • Dilution 4=1:100,000,000 • Dilution 5=1:1,000,000,000 • Dilution 6=1:10,000,000,000
Selected amounts of target template were amplified on the Light Cycler (Roche) in the presence of various amounts of Dye 122, Dye 109a and SYBR Green.
A master mixture was made up of: • 380 l of 2×PCR mix described in Example 33 • 15.2 l of 25 mM MgCl2 • 190.0 l of DEPC treated H2O • 7.6 l of 10 mg/ml BSA (New England Biolabs, Beverly, Mass.) • 7.6 l Taq polymease (Perkin Elmer)+7.6 l of TaqStart (Clontech)
2.0 l of target template (1:50,000 dilution of the antisense C amplicon)+2.0 l of various dye concentrations were added to 16 µl of Master mixture and amplified as described previously in Example 33 stopping after 29 cycles. Dye additions were from the 1:1000 dilution of SYBR Green, 1:30 of Dye 109a and 1:30 of Dye 122.
At the highest input level (Dil 2 1:1,000,000 dilution of amplicon) no evidence of amplification is seen in the sample without dye.

[2] = 1:200 dilution of SYBR Green, lane 7

SMILES: CCCN(CCCN(C)C)c1cc(/C=C2/Sc3ccccc3N2C)c2ccccc2[n+]1-c1ccccc1 [SYBR Green, reference compound]
- amplification (gel analysis, FIG. 1) ([1]; 1:20 dilution of SYBR Green, 56 cycles): strong inhibition of amplification
- synthesis of non-target derived amplicons [1, 2]: elimination or suppression of the synthesis of non-target derived amplicons
- synthesis of target derived amplicons compared to the reaction without any dye [1, 2]: enhancement of overall synthesis of target derived amplicons
- amplification product (gel analysis, FIG. 5) (anti-sense C amplicon; Dil 2 (1:1,000,000) target input): faint but visible band
- amplification product (gel analysis, FIG. 5) (anti-sense C amplicon; further dilutions of target): do not show any evidence of an amplification product
